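Where inhibition never reached the appropriate level, the endpoint shown equals the highest concentration tested. Otherwise, values were interpolated linearly from a five-concentration, 48-hour dose response in 96-well plates. GI50 is the concentration that inhibits growth by half. At the TGI there is no net growth.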
Legend:
Assay in all cases: DTP human tumour cell line panel, 48 h
RXF 393 renal = tested on: RXF 393 renal
TK-10 renal = tested on: TK-10 renal
NCI-H460 lung = tested on: NCI-H460 lung
MDA-MB-231 breast = tested on: MDA-MB-231 breast
A549 NSCLC = tested on: A549 NSCLC
LOX IMVI melanoma = tested on: LOX IMVI melanoma
OVCAR-4 ovarian = tested on: OVCAR-4 ovarian
SR leukemia = tested on: SR leukemia
MDA-MB-468 breast = tested on: MDA-MB-468 breast
OVCAR-8 ovarian = tested on: OVCAR-8 ovarian
NCI-H23 lung = tested on: NCI-H23 lung
HOP-92 NSCLC = tested on: HOP-92 NSCLC
SK-MEL-28 melanoma = tested on: SK-MEL-28 melanoma
DU-145 prostate = tested on: DU-145 prostate
RPMI-8226 leukemia = tested on: RPMI-8226 leukemia
SNB-75 CNS = tested on: SNB-75 CNS
T-47D breast = tested on: T-47D breast
HT29 colon = tested on: HT29 colon
786-0 renal = tested on: 786-0 renal
NCI/ADR-RES ovarian = tested on: NCI/ADR-RES ovarian
UACC-257 melanoma = tested on: UACC-257 melanoma
HCT-15 colon = tested on: HCT-15 colon
SK-OV-3 ovarian = tested on: SK-OV-3 ovarian
SK-MEL-5 melanoma = tested on: SK-MEL-5 melanoma
HOP-62 NSCLC = tested on: HOP-62 NSCLC
SW-620 colon = tested on: SW-620 colon
SF-539 CNS = tested on: SF-539 CNS
A498 renal = tested on: A498 renal
NCI-H226 lung = tested on: NCI-H226 lung
MCF7 breast = tested on: MCF7 breast

`C=CC(=O)Nc1ccc(C(=O)/C=C/c2ccc(N(C)CCF)cc2)c(O)c1` gave a GI50 (RXF 393 renal) of 1.52 µM, a TGI (RXF 393 renal) of 3.09 µM and a GI50 (TK-10 renal) of 3.12 µM. The TGI (TK-10 renal) was 8.4 µM, the GI50 (NCI-H460 lung) was 1.87 µM and the TGI (NCI-H460 lung) was 5.46 µM. The GI50 (MDA-MB-231 breast) was 2.19 µM, the TGI (MDA-MB-231 breast) was 5.58 µM and the GI50 (A549 NSCLC) was 2.62 µM. It also gave a TGI (A549 NSCLC) of 12.7 µM, a GI50 (LOX IMVI melanoma) of 1.33 µM and a TGI (LOX IMVI melanoma) of 2.69 µM. For the same compound, the GI50 (OVCAR-4 ovarian) was 2.95 µM, the TGI (OVCAR-4 ovarian) was 14 µM and the GI50 (SR leukemia) was 0.586 µM. It also gave a TGI (SR leukemia) of 6.2 µM, a GI50 (MDA-MB-468 breast) of 1.63 µM and a TGI (MDA-MB-468 breast) of 4.28 µM. For the same compound, the GI50 (OVCAR-8 ovarian) was 1.51 µM, the TGI (OVCAR-8 ovarian) was 3.86 µM and the GI50 (NCI-H23 lung) was 1.68 µM. It also gave a TGI (NCI-H23 lung) of 3.99 µM, a GI50 (HOP-92 NSCLC) of 0.527 µM and a TGI (HOP-92 NSCLC) of 4 µM. The GI50 (SK-MEL-28 melanoma) was 1.58 µM, the TGI (SK-MEL-28 melanoma) was 3.14 µM and the GI50 (DU-145 prostate) was 2.52 µM. It also gave a TGI (DU-145 prostate) of 10.3 µM, a GI50 (RPMI-8226 leukemia) of 1.6 µM and a TGI (RPMI-8226 leukemia) of 5.92 µM. For the same compound, the GI50 (SNB-75 CNS) was 2.1 µM, the TGI (SNB-75 CNS) was 9.84 µM and the GI50 (T-47D breast) was 2.47 µM. The TGI (T-47D breast) was 10 µM, the GI50 (HT29 colon) was 1.57 µM and the TGI (HT29 colon) was 3.31 µM. It also gave a GI50 (786-0 renal) of 1.65 µM, a TGI (786-0 renal) of 3.57 µM and a GI50 (NCI/ADR-RES ovarian) of 1.55 µM. The TGI (NCI/ADR-RES ovarian) was 4.4 µM, the GI50 (UACC-257 melanoma) was 2.53 µM and the TGI (UACC-257 melanoma) was 10.9 µM. It also gave a GI50 (HCT-15 colon) of 1.41 µM, a TGI (HCT-15 colon) of 3.01 µM and a GI50 (SK-OV-3 ovarian) of 6.47 µM. It also gave a TGI (SK-OV-3 ovarian) of 21.4 µM, a GI50 (SK-MEL-5 melanoma) of 2.14 µM and a TGI (SK-MEL-5 melanoma) of 6.49 µM. The GI50 (HOP-62 NSCLC) was 3.26 µM, the TGI (HOP-62 NSCLC) was 13 µM and the GI50 (SW-620 colon) was 1.52 µM. It also gave a TGI (SW-620 colon) of 3.36 µM, a GI50 (SF-539 CNS) of 1.67 µM and a TGI (SF-539 CNS) of 3.5 µM. For the same compound, the GI50 (A498 renal) was 3.52 µM, the TGI (A498 renal) was 17.7 µM and the GI50 (NCI-H226 lung) was 1.92 µM. It also gave a TGI (NCI-H226 lung) of 5.32 µM and a GI50 (MCF7 breast) of 1.89 µM.
